The subject of assay [1] is thrombomodulin (TM) antigen in normal human umbilical vein endothelial cells (HUVECs). Kind of assay: TM antigen level in HUVECs by enzyme immunoassay after 24 h incubation with statin. Type of assay: cell-based. The settings on record: 10^-7 M to 10^-3 M, control (0.01% DMSO) = 100%, FIG. 1. The method, then:
Normal human umbilical vein endothelial cells (HUVECs) were plated at a density of 2×10^5 cells/ well in a 24-well plate with HuMedia-EG2 medium (Kurabo Inc.) to which 2% (vol/vol) fetal bovine serum, 50 μg/ml gentamicin, 50 ng/ml amphotericin B, 10 ng/ml hEGF, 5 ng/ml hFGF-B, 1 μg/ml hydrocortisone and 10 μg/ml heparin were added. Subsequently, each test substance (pitavastatin, fluvastatin and pravastatin) was added to the medium at a final concentration of 10^−7 M to 10^−3 M, and incubated for 24 hours with 5% CO2 at 37° C. After the incubation, the cells were washed 3 times with a phosphate buffer solution (pH 7.4), and suspended in 50 mmol/L Tris-HCl (pH 7.4) that contained 0.15 mol/L NaCl, 0.5% Triton X-100 and 1 mmol/L benzamide hydrchloride, then, TM was extracted. The levels of TM antigen were measured by enzyme immunoassay using the monoclonal antibodies TMmAb 2, 11 and 20. In the case where the value of the control (containing an equivalent weight of DMSO (0.01%)) is assigned to 100%, the effects on the TM antigen levels existing in the cellular proteins due to the addition of each test substance were measured.

The subject of assay [2] is TM m-RNA expression in HUVECs. Kind of assay: TM mRNA expression in HUVECs by Northern blot, time course. Type of assay: cell-based, human. The settings on record: 10^-5 M, incubated for the indicated time, FIG. 2. The method, then:
HUVECs were plated in HuMedia-EG2 medium (Kurabo Inc.) to which 2% (vol/vol) fetal bovine serum, 50 μg/ml gentamicin, 50 ng/ml amphotericin B, 10 ng/ml hEGF, 5 ng/ml hFGF-B, 1 μg/ml hydrocortisone and 10 μg/ml heparin were added. Subsequently, pitavastatin (at a final concentration of 10^−5 M) was added to the medium, and incubated for the indicated time with 5% CO2 at 37° C. Total RNA was extracted by using TRIZOL reagent (Life Technologies, Inc.) and the levels of TM m-RNA expression were measured by the Northern blot method, which is a usual method.

`O=C(O)C[C@H](O)C[C@H](O)/C=C/c1c(C2CC2)nc2ccccc2c1-c1ccc(F)cc1` [pitavastatin, (+)-(3R, 5S, 6E)-7-[2-cyclopropyl-4-(4-fluorophenyl)-3-quinolyl]-3,5-dihydroxy-6-heptenoic acid]: the “ratio of the TM antigen level/cellular protein to the control” value in assay [1] was “significant increase level”. In addition, the “ratio of the TM expression level (TM m-RNA) to the control, time course” value in assay [2] is recorded as “increased drastically after 12 hours”.

(Values after patent US20080275081A1, “Novel thrombomodulin expression promoters” (Kowa Company, Ltd., priority 2002, published 2008).)
